Source: ChEMBL document CHEMBL3244098, “Angiotensin II analogues. 13. Role of the hydroxyl group of position 4 tyrosine in pressor activity” (1979)
Numbered stars: 1 amine (or outer) side, 2 acyl side, 3 side chain; on linkers, the order of the positions; unused ones are H or OH. Square brackets hold non-standard residues; d marks the D form. Peptide text beside a SMILES is read from it. Phe(4-NO2) = N[C@@H](Cc1ccc([N+](=O)[O-])cc1)C(=O)O; Tyr(3,5-I2) = N[C@@H](Cc1cc(I)c(O)c(I)c1)C(=O)O; X3 = N#[N+]c1ccc(C[C@@H](N[*:1])C(=O)[*:2])cc1; X2 = Nc1c(I)cc(C[C@@H](N[*:1])C(=O)[*:2])cc1I; X4 = Cc1cc(C[C@@H](N[*:1])C(=O)[*:2])cc(C)c1O; X1 = Cc1cc(C[C@H](N[*:1])C(=O)[*:2])cc(C)c1O; Tyr(3-I) = N[C@@H](Cc1ccc(O)c(I)c1)C(=O)O; Phe(4-NH2) = Nc1ccc(C[C@H](N)C(=O)O)cc1; Sar = CNCC(=O)O

What was measured:
[1] = target: T1, Type-1 angiotensin II receptor (Oryctolagus cuniculus) (UniProt P34976); assay: Binding affinity to angiotensin 2 receptor in rabbit aorta
T1 sequence (whole entry): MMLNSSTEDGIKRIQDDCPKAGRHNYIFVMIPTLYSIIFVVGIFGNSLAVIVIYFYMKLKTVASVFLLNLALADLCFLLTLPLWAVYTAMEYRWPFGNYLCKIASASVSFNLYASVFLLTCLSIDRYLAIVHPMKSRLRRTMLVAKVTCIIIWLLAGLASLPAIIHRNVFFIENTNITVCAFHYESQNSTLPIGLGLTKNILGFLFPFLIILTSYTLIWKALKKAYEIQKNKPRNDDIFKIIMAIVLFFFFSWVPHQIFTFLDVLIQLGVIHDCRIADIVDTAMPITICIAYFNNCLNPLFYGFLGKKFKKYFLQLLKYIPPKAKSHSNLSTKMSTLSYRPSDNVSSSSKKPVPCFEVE

Rattus norvegicus = species on record: Rattus norvegicus; assay: Pressor activity in nephrectomized, pentolinium treated rat relative to [Asn1,Val5]AII; assay type: functional

Q: How did the Activity [1] turn out when `CNCC(=O)N[C@@H](CCCNC(=N)N)C(=O)N[C@H](C(=O)N[C@H](Cc1ccc(N)cc1)C(=O)N[C@H](C(=O)N[C@@H](Cc1cnc[nH]1)C(=O)N1CCC[C@H]1C(=O)N[C@@H](Cc1ccccc1)C(=O)O)C(C)C)C(C)C` was run?
A: 15%

Q: With `CNCC(=O)N[C@@H](CCCNC(=N)N)C(=O)N[C@H](C(=O)N[C@H](Cc1ccc(N=[N+]=[N-])cc1)C(=O)N[C@H](C(=O)N[C@@H](Cc1cnc[nH]1)C(=O)N1CCC[C@H]1C(=O)N[C@@H](Cc1ccccc1)C(=O)O)C(C)C)C(C)C` as the compound, how does the Activity [1] read?
A: 0.26%

Q: For `CC[C@H](C)[C@H](NC(=O)[C@H](Cc1ccccc1)NC(=O)[C@@H](NC(=O)[C@H](CCCNC(=N)N)NC(=O)[C@@H](N)CC(=O)O)C(C)C)C(=O)N[C@@H](Cc1cnc[nH]1)C(=O)N1CCC[C@H]1C(=O)N[C@@H](Cc1ccccc1)C(=O)O` (H-DRVFIHPF-OH), which Activity (Rattus norvegicus) is on record?
A: 10%

Q: For `CC[C@H](C)[C@H](NC(=O)[C@H](Cc1ccc(N)cc1)NC(=O)[C@@H](NC(=O)[C@H](CCCNC(=N)N)NC(=O)[C@@H](N)CC(N)=O)C(C)C)C(=O)N[C@@H](Cc1cnc[nH]1)C(=O)N1CCC[C@H]1C(=O)N[C@@H](Cc1ccccc1)C(=O)O` (H-NRV[Phe(4-NH2)]IHPF-OH), which Activity (Rattus norvegicus) is on record?
A: 24%

Q: With `CC[C@H](C)[C@H](NC(=O)[C@H](Cc1ccc([N+](=O)[O-])cc1)NC(=O)[C@@H](NC(=O)[C@H](CCCNC(=N)N)NC(=O)[C@@H](N)CC(N)=O)C(C)C)C(=O)N[C@@H](Cc1cnc[nH]1)C(=O)N1CCC[C@H]1C(=O)N[C@@H](Cc1ccccc1)C(=O)O` (H-NRV[Phe(4-NO2)]IHPF-OH) as the compound, how does the Activity (Rattus norvegicus) read?
A: 0.1%

Q: `CC(C)[C@H](NC(=O)[C@H](CCCNC(=N)N)NC(=O)[C@@H](N)CC(N)=O)C(=O)N[C@@H](Cc1cc(I)c(O)c(I)c1)C(=O)N[C@H](C(=O)N[C@@H](Cc1cnc[nH]1)C(=O)N1CCC[C@H]1C(=O)N[C@@H](Cc1ccccc1)C(=O)O)C(C)C` (H-NRV[Tyr(3,5-I2)]VHPF-OH) was tested. Which Activity (Rattus norvegicus) did it give?
A: 13%

Q: For `CC(C)[C@H](NC(=O)[C@H](CCCNC(=N)N)NC(=O)[C@@H](N)CC(N)=O)C(=O)N[C@@H](Cc1ccc(O)c(I)c1)C(=O)N[C@H](C(=O)N[C@@H](Cc1cnc[nH]1)C(=O)N1CCC[C@H]1C(=O)N[C@@H](Cc1ccccc1)C(=O)O)C(C)C` (H-NRV[Tyr(3-I)]VHPF-OH), which Activity (Rattus norvegicus) is on record?
A: 33%

Q: Which Activity (Rattus norvegicus) does the source give for `CC[C@H](C)[C@H](NC(=O)[C@H](Cc1cc(C)c(O)c(C)c1)NC(=O)[C@@H](NC(=O)[C@H](CCCNC(=N)N)NC(=O)[C@@H](N)CC(N)=O)C(C)C)C(=O)N[C@@H](Cc1cnc[nH]1)C(=O)N1CCC[C@H]1C(=O)N[C@@H](Cc1ccccc1)C(=O)O` (H-NRV[X1]IHPF-OH) here?
A: 2.2%

Q: `CC[C@H](C)[C@H](NC(=O)[C@@H](Cc1cc(C)c(O)c(C)c1)NC(=O)[C@@H](NC(=O)[C@H](CCCNC(=N)N)NC(=O)[C@@H](N)CC(N)=O)C(C)C)C(=O)N[C@@H](Cc1cnc[nH]1)C(=O)N1CCC[C@H]1C(=O)N[C@@H](Cc1ccccc1)C(=O)O` (H-NRV[X4]IHPF-OH) was tested. Which Activity (Rattus norvegicus) did it give?
A: 1.4%

Q: For `CNCC(=O)N[C@@H](CCCNC(=N)N)C(=O)N[C@H](C(=O)N[C@H](Cc1cc(I)c(N)c(I)c1)C(=O)N[C@H](C(=O)N[C@@H](Cc1cnc[nH]1)C(=O)N1CCC[C@H]1C(=O)N[C@@H](Cc1ccccc1)C(=O)O)C(C)C)C(C)C` (H-[Sar]RV[X2]VHPF-OH), which Activity [1] is on record?
A: 2.7%

Q: For `CNCC(=O)N[C@@H](CCCNC(=N)N)C(=O)N[C@H](C(=O)N[C@H](Cc1ccc([N+]#N)cc1)C(=O)N[C@H](C(=O)N[C@@H](Cc1cnc[nH]1)C(=O)N1CCC[C@H]1C(=O)N[C@@H](Cc1ccccc1)C(=O)O)C(C)C)C(C)C` (H-[Sar]RV[X3]VHPF-OH), which Activity [1] is on record?
A: 0.66%
